Reference: the supplement of paper PMC8967900

Tests used:
Assay in all cases: selective drug sensitivity score (sDSS, relative to normal bone marrow) (sDSS (score)); higher = more potent and effective on the cell line relative to normal bone marrow cells
Settings in all cases: 72 h
[1] = test system: 697
[2] = test system: ALL-PO
[3] = test system: CCRF-HSB2
[4] = test system: COG-LL-317
[5] = test system: COG-LL-402h
[6] = test system: DND-41
[7] = test system: HAL-01
[8] = test system: HPB-ALL
[9] = test system: JURKAT
[10] = test system: KARPAS-45
[11] = test system: KASUMI-2
[12] = test system: KASUMI-9
[13] = test system: LC4-1
[14] = test system: MOLT-4
[15] = test system: NALL-1
[16] = test system: NALM-16
[17] = test system: NALM-6
[18] = test system: PF-382
[19] = test system: RPMI-8402
[20] = test system: SUP-B15
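Further: ALL cell lines in 384-well plates, five doses spanning 10,000-fold, each plate scaled between vehicle and 100 µmol/L benzalkonium chloride controls, sDSS an adapted area-under-curve metric.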

| SMILES | selective drug sensitivity score [1] | selective drug sensitivity score [2] | selective drug sensitivity score [3] | selective drug sensitivity score [4] | selective drug sensitivity score [5] | selective drug sensitivity score [6] | selective drug sensitivity score [7] | selective drug sensitivity score [8] | selective drug sensitivity score [9] | selective drug sensitivity score [10] | selective drug sensitivity score [11] | selective drug sensitivity score [12] | selective drug sensitivity score [13] | selective drug sensitivity score [14] | selective drug sensitivity score [15] | selective drug sensitivity score [16] | selective drug sensitivity score [17] | selective drug sensitivity score [18] | selective drug sensitivity score [19] | selective drug sensitivity score [20] |
| --- | --- | --- | --- | --- | --- | --- | --- | --- | --- | --- | --- | --- | --- | --- | --- | --- | --- | --- | --- | --- |
| CC(=O)c1cc2c(o1)C(=O)c1ccccc1C2=O [Napabucasin] (top concentration 20000 nM) | -0.88 | 0.92 | 0.12 | -0.18 | -3.48 | -0.18 | -0.38 | -0.98 | 0.52 | 1.22 | -3.38 | -1.28 | -0.38 | -1.28 | -7.38 | -11.8 | -1.48 | -0.28 | -6.08 | 1.22 |
| CC1(C)CCC(c2ccc(Cl)cc2)=C(CN2CCN(c3ccc(C(=O)NS(=O)(=O)c4ccc(N[C@H](CCN5CCOCC5)CSc5ccccc5)c(S(=O)(=O)C(F)(F)F)c4)cc3)CC2)C1 [Navitoclax] (top concentration 10000 nM) | 13 | 23.6 | 8.92 | 20.5 | 23.4 | 15.1 | 14.8 | 17.8 | 9.02 | 22.8 | 24.8 | 19.8 | 22.2 | 15.6 | 22.9 | 19.2 | 11.7 | 13.7 | 7.42 | 27.5 |
| CC(=O)c1c(C)c2cnc(Nc3ccc(N4CCNCC4)cn3)nc2n(C2CCCC2)c1=O [Palbociclib] (top concentration 10000 nM) | 14.3 | 4.08 | 1.68 | 0.98 | 8.78 | 2.48 | 1.48 | 2.78 | 1.58 | 3.68 | 0.88 | 8.78 | 4.38 | 1.08 | -1.72 | 1.98 | 3.68 | 5.48 | 5.98 | 2.38 |
| COc1ccc(COc2cc3oc(=O)c4cc(C(C)O)ccc4c3cc2OC)cc1 (stereo not given) [Palomid-529] (top concentration 10000 nM) | 0.06 | 2.86 | 1.46 | 0.06 | 0.26 | -0.24 | -0.24 | 0.76 | 5.16 | 2.76 | -0.24 | 0.66 | 12.6 | 2.26 | -0.04 | -0.24 | -0.24 | 1.06 | 2.86 | 5.26 |
| FC(F)(F)c1ccc(CNc2ccc(Cc3c[nH]c4ncc(Cl)cc34)cn2)cn1 [Pexidartinib] (top concentration 10000 nM) | 3.18 | 6.68 | 1.38 | -0.52 | -2.22 | -2.12 | 2.08 | -1.92 | 1.48 | -0.02 | -2.22 | 1.18 | 1.98 | -1.92 | -1.92 | -1.22 | 0.18 | -1.22 | 0.58 | -0.22 |
| CO[C@H](C(=O)[C@@H](O)[C@@H](C)O)[C@@H]1Cc2cc3cc(O[C@H]4C[C@@H](O[C@H]5C[C@@H](O)[C@H](O)[C@@H](C)O5)[C@@H](O)[C@@H](C)O4)c(C)c(O)c3c(O)c2C(=O)[C@H]1O[C@H]1C[C@@H](O[C@H]2C[C@@H](O[C@H]3C[C@](C)(O)[C@H](O)[C@@H](C)O3)[C@H](O)[C@@H](C)O2)[C@H](O)[C@@H](C)O1 [Plicamycin] (top concentration 10000 nM) | -17.5 | -15.9 | -5.26 | -1.96 | 2.34 | 0.44 | -17.9 | 7.44 | -11.2 | -11.1 | -17.2 | -17.5 | -16.7 | -6.26 | -17 | 2.74 | 7.34 | -12.1 | -5.86 | -15.6 |
| Cn1cc(CNCC2CCN(c3ncc(C(=O)NO)cn3)CC2)c2ccccc21 [Quisinostat] (top concentration 1000 nM) | 8.68 | 5.98 | 1.28 | 7.18 | 17.6 | 2.98 | -5.02 | 6.88 | 1.78 | 8.18 | 12.4 | 9.78 | 7.38 | 2.98 | -0.72 | -1.32 | 1.78 | 2.08 | 5.58 | 10.1 |
| CC(C)(C)Cn1c(N)nc2ccc(-c3[nH]c(C(C)(C)C)nc3-c3ccc(F)cc3)nc21 [Ralimetinib] (top concentration 10000 nM) | 5.66 | 8.56 | 1.26 | 0.96 | 2.26 | 5.36 | -0.74 | 3.66 | 1.76 | 5.36 | 1.56 | 8.76 | 4.76 | 8.36 | -0.84 | -0.84 | -0.24 | 2.06 | 4.26 | 7.36 |
| O=C(CCCCCCNC(=O)c1cnc(N(c2ccccc2)c2ccccc2)nc1)NO [Rocilinostat] (top concentration 10000 nM) | 5.84 | 5.84 | 6.54 | 5.14 | 8.14 | 3.54 | -0.56 | 5.54 | 2.74 | 10 | 10.2 | 6.64 | 8.24 | 5.04 | -0.66 | 3.34 | 4.84 | 4.84 | 4.64 | 5.64 |
| CN1CCC(CNc2ccc3ncc(-c4cccc(OC(F)(F)F)c4)n3n2)CC1 [SGI-1776] (top concentration 10000 nM) | -0.68 | 7.02 | 3.12 | 0.02 | -2.48 | -1.18 | 1.92 | -4.08 | -3.28 | -2.08 | 0.62 | -1.68 | -1.08 | -2.88 | -2.18 | -1.38 | -3.08 | -2.68 | -2.68 | -0.88 |
| O=C(/C=C\n1cnc(-c2cc(C(F)(F)F)cc(C(F)(F)F)c2)n1)NNc1cnccn1 [Selinexor] (top concentration 10000 nM) | 12.4 | 13.5 | 14.8 | 17.4 | 11.7 | 14.6 | 9.08 | 3.78 | 12.8 | 10.9 | 16.7 | 7.98 | 7.78 | 13.2 | 2.98 | 0.48 | 13 | 9.78 | 12.3 | 16.3 |
| Cn1cnc2c(F)c(Nc3ccc(Br)cc3Cl)c(C(=O)NOCCO)cc21 [Selumetinib] (top concentration 10000 nM) | -1 | -2.8 | 0.8 | -3.5 | -2.3 | 0.4 | 11 | -4.1 | -3.5 | -3.8 | 7.5 | 2.2 | 0.7 | -3.7 | -4.1 | -1.3 | 5 | -1.8 | -4.1 | 5.4 |
| COCC[n+]1c2c(n(Cc3cnccn3)c1C)C(=O)c1ccccc1C2=O [Sepantronium_bromide] (top concentration 10000 nM) | 22.8 | 4.44 | 14.6 | 13.3 | 22.8 | -7.46 | -12.6 | 6.34 | 14.2 | 11 | 19.5 | 16.2 | 22.3 | 15.9 | 16.2 | 22.2 | 22.3 | 14.1 | 7.64 | 22.3 |
| O=C(O)c1ccc2c(c1)nc(Nc1cccc(Cl)c1)c1ccncc12 [Silmitasertib] (top concentration 10000 nM) | 3.5 | 1.9 | 4.4 | 4 | 0.2 | 3.6 | 3.8 | 1.9 | 3.2 | 4.1 | -1.4 | 3.3 | 3.9 | 0.6 | 2.2 | -1.4 | 4 | 2 | 3.3 | 3 |
| CO[C@H]1C[C@@H]2CC[C@@H](C)[C@@](O)(O2)C(=O)C(=O)N2CCCC[C@H]2C(=O)O[C@H]([C@H](C)C[C@@H]2CC[C@@H](O)[C@H](OC)C2)CC(=O)[C@H](C)/C=C(\C)[C@@H](O)[C@@H](OC)C(=O)[C@H](C)C[C@H](C)/C=C/C=C/C=C/1C [Sirolimus] (top concentration 100 nM) | 6.34 | 0.14 | 3.14 | 0.74 | 0.04 | -0.16 | 0.44 | -2.46 | -1.96 | -0.16 | 2.84 | 4.74 | 1.74 | -2.46 | -3.66 | -2.26 | -2.86 | 1.84 | -1.76 | 5.04 |
| COCCNCc1ccc(-c2cc3nccc(Oc4ccc(NC(=O)C5(C(=O)Nc6ccc(F)cc6)CC5)cc4F)c3s2)nc1 [Sitravatinib] (top concentration 2500 nM) | 1.58 | 14.8 | 9.28 | -0.42 | 1.78 | 0.98 | 5.28 | -0.42 | 0.38 | 3.78 | -0.42 | 3.58 | 1.28 | 0.78 | 9.38 | 2.78 | -0.12 | 1.08 | 2.38 | 8.68 |
| CCN(CC)CCNC(=O)c1c(C)[nH]c(/C=C2\C(=O)Nc3ccc(F)cc32)c1C [Sunitinib] (top concentration 1000 nM) | 1.16 | 14.2 | 1.36 | -1.44 | -1.44 | -1.44 | 3.36 | -1.44 | -1.44 | -0.64 | -1.44 | 0.66 | -0.84 | -0.94 | -1.44 | -1.04 | -1.44 | -1.44 | -1.24 | 6.86 |
